Data from US7135466B2 (Kirin Beer Kabushiki Kaisha, priority 1999, dated 2006).
Read-outs that look alike come from different tables or passages of the source.

Experiments:
[1] = molecular target: T1, PDGF-Ra (Homo sapiens, UniProt P16234); assay: Inhibitory activity against PDGF-Ra phosphorylation by PDGF-AA stimulation using G292; assay type: cell-based; conditions: for IC50: > means inhibition at indicated concentration not more than 50%, < and << not less than 50%, read-out: PDGF (E) IC50; for inhibition at 0.1 µM: G292, at 100 nM, read-out: PDGF (E) inhibition (%) at 100 nM
T1 construct: host or cells: G-292 human osteosarcoma cells
How it was run: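 G-292 human osteosarcoma cells, serum-starved overnight in 0.1% FBS, were pretreated with compound in DMSO for 1 hr at 37 °C, then stimulated with 50 ng/ml PDGF-AA for 5 min. Lysates were captured on anti-phosphotyrosine PY-20 plates and probed with anti-PDGF-Ra plus HRP secondary; absorbance read at 450 nm.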

[2] = molecular target: T2, c-kit (Homo sapiens, UniProt P10721); assay: Inhibitory activity against c-kit autophosphorylation (MO7e cells, h-SCF); assay type: cell-based; conditions: for IC50: MO7e cells, read-out: c-kit IC50; for inhibition at 1 µM: Mo7e, at 1000 nM
T2 construct: MO7e (human megakaryocytic leukemia cell line) which had been arrested for 20 hr; endogenous in cells; host or cells: MO7e human megakaryocytic leukemia cell line
How it was run: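 Phospho-c-kit ELISA: plate-bound PY-20 anti-phosphotyrosine captures lysate, anti-c-kit plus peroxidase-labelled secondary antibody detect, read at 450 nm. Lysates come from 20 hr-arrested MO7e cells given compound for 1 hr before a 5 min 50 ng/ml h-SCF stimulus.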

[3] = figure within parentheses in −( ) or >1000( )

T2 sequence (P10721 26-976): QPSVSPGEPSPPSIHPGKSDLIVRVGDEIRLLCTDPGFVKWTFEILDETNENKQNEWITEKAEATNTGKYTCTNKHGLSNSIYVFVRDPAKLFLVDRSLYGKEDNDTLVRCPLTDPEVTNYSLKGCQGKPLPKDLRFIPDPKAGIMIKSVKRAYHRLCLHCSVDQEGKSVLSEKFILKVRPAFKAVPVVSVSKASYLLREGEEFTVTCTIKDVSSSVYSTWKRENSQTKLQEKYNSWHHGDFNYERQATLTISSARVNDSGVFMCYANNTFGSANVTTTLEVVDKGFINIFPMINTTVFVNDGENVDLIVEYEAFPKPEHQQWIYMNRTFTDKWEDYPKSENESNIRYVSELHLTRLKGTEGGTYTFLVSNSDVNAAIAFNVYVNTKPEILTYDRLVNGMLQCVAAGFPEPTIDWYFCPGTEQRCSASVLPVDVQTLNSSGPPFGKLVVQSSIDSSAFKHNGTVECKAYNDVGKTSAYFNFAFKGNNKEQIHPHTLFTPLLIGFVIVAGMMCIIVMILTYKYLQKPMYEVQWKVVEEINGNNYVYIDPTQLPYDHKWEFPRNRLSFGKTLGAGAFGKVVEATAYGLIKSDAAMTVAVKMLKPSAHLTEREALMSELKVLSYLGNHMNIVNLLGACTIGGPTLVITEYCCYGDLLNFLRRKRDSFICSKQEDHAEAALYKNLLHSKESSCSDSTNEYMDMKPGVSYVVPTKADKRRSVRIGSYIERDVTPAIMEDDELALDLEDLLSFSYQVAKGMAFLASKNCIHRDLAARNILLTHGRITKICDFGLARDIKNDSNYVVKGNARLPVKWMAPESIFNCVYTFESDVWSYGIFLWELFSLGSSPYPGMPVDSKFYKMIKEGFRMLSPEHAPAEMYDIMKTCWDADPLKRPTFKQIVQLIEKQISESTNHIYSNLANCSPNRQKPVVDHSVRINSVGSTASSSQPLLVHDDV
T1 sequence (P16234 24-1089): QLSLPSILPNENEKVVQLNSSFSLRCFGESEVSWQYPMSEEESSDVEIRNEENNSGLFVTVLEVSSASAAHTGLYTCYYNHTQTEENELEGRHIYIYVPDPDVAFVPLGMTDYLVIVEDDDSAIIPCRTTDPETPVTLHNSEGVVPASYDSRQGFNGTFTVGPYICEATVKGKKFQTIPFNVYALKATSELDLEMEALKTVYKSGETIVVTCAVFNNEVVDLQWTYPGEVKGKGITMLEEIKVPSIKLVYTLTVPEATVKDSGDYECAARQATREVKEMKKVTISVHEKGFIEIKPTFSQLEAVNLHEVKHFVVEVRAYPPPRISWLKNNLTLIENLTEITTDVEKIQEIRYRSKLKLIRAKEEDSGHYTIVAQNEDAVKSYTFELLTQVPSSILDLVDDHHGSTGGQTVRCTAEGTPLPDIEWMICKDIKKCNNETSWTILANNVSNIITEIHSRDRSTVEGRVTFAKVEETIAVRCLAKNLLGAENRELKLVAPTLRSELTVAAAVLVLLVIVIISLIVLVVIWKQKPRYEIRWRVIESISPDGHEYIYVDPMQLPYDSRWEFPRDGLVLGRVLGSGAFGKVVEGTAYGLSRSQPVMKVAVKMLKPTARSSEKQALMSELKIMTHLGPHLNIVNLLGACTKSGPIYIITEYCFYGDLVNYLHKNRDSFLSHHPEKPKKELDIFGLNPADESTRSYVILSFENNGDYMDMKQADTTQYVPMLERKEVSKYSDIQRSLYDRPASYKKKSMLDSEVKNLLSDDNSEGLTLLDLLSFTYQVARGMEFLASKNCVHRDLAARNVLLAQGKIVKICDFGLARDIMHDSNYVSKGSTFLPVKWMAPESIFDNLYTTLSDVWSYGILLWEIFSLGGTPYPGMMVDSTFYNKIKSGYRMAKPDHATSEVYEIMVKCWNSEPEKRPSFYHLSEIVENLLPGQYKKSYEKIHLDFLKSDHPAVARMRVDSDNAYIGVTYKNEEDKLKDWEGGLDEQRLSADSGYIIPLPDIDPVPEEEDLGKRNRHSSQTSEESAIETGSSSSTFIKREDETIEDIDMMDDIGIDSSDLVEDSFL

Compound | IC50 [1] [nM] | IC50 ([1]; Pharmacological Test Example 1) [nM] | IC50 ([2]; h-SCF 50 ng/ml) [nM] | also measured
COc1cc2nccc(Oc3ccc(OCCCOc4cccc(F)c4)cc3)c2cc1OC [Example 797, 4-{4-[3-(3-Fluorophenoxy)propoxy]phenoxy}-6,7-dimethoxyquinoline] | 27 |  |  | IC50 ([2]; 50 ng/ml h-SCF): 403 nM
CCCCCCCCCCCCCCCCCCOC(=O)Nc1ccc(Oc2ccnc3cc(OC)c(OC)cc23)c(C)c1C [Example 328, Octadecyl N-{4-[(6,7-dimethoxy-4-quinolyl)oxy]-2,3-dimethylphenyl}carbamate] |  | > 100 |  | inhibition at 0.1 µM ([1]; figure in parentheses in >100( )): 22%; inhibition at 1 µM ([2]; figure in parentheses in −( )): 10%
CCN(C(=O)OC1CCCCCC1)c1ccc(Oc2ncnc3cc(OC)c(OC)cc23)cc1Cl [Example 489, Cycloheptyl N-{2-chloro-4-[(6,7-dimethoxy-4-quinazolinyl)oxy]phenyl}-N-ethylcarbamate] | 58 |  |  | IC50 ([2]; 50 ng/ml h-SCF): 637 nM
COc1cc2ncnc(Oc3ccc(NC(=O)OCC4CCCC4)cc3)c2cc1OC [Example 397, Cyclopentylmethyl N-{4-[(6,7-dimethoxy-4-quinazolinyl)oxy]phenyl}carbamate] |  | < 10 | 77 | 
COc1cc2nccc(Oc3ccc(NC(=S)NC(=O)c4ccc(Br)s4)cc3Cl)c2cc1OC [Example 693, N-[(5-Bromo-2-thienyl)carbonyl]-N′-{3-chloro-4-[(6,7-dimethoxy-4-quinolyl)oxy]phenyl}thiourea] | 56 |  |  | IC50 ([2]; 50 ng/ml h-SCF): > 1000 nM; inhibition at 1 µM [2, 3]: 46%
COc1cc2nccc(Oc3ccc(NC(=S)NC(=O)[C@H](C)c4ccccc4)cc3)c2cc1OC [Example 743, N-{4-[(6,7-Dimethoxy-4-quinolyl)oxy]phenyl}-N′-[(2R)-2-phenylpropanoyl]thiourea] | 10 |  |  | IC50 ([2]; 50 ng/ml h-SCF): 548 nM
COc1cc2nccc(Oc3ccc(NC(=S)NC(=O)N4CCCC4)cc3Cl)c2cc1OC [Example 1051, N-{3-Chloro-4-[(6,7-dimethoxy-4-quinolyl)oxy]phenyl}-N′-tetrahydro-1H-1-pyrrolylcarbonylthiourea] | 14 |  |  | IC50 ([2]; h-SCF stimulation): 418 nM
COc1cc2nccc(Oc3ccc(NC(=O)OCc4ccc(C(F)(F)F)cc4)cc3)c2cc1OC [Example 21, 4-(Trifluoromethyl)benzyl N-{4-[(6,7-dimethoxy-4-quinolyl)oxy]phenyl}carbamate] |  | < 10 | 135 | 
CCC(CC)OC(=O)Nc1ccc(Oc2ccnc3cc(OC)c(OC)cc23)c(C)c1C [Example 360, 1-Ethylpropyl N-{4-[(6,7-dimethoxy-4-quinolyl)oxy]-2,3-dimethylphenyl}carbamate] |  | 16 | 189 | 
CCCC(CCN1CCCCC1)OC(=O)Nc1ccc(Oc2ccnc3cc(OC)c(OC)cc23)c(C)c1C (stereo not drawn) [Example 447] | > 100 |  |  | inhibition at 0.1 µM ([1]; figure within parentheses in >100( )): 11%; IC50 ([2]; 50 ng/ml h-SCF): 553 nM
COc1cc2nccc(Oc3ccc(NC(=O)OC(C)c4ccccc4Br)cc3)c2cc1OC (stereo not drawn) [Example 112, 1-(2-Bromophenyl)ethyl N-{4-[(6,7-dimethoxy-4-quinolyl)oxy]phenyl}carbamate] |  | 16 | 214 | 
COc1cc2ncnc(Oc3ccc(NC(=O)OCc4ccc(F)cc4)cc3)c2cc1OC [Example 11, 4-Fluorobenzyl N-{4-[(6,7-dimethoxy-4-quinazolinyl)oxy]phenyl}carbamate] |  | < 10 | 36 | 
COc1ccc(C(C)OC(=O)Nc2ccc(Oc3ncnc4cc(OC)c(OC)cc34)cc2)cc1 (stereo not drawn) [Example 35, 1-(4-Methoxyphenyl)ethyl N-{4-[(6,7-dimethoxy-4-quinazolinyl)oxy]phenyl}carbamate] |  | < 10 | 342 | 
COc1ccccc1COC(=O)N(C)c1ccc(Oc2ncnc3cc(OC)c(OC)cc23)cc1 [Example 490, 2-Methoxybenzyl N-{4-[(6,7-dimethoxy-4-quinazolinyl)oxy]phenyl}-N-methylcarbamate] | 21 |  |  | IC50 ([2]; 50 ng/ml h-SCF): 261 nM
CCC(OC(=O)Nc1cc(C)c(Oc2ccnc3cc(OC)c(OC)cc23)cc1C)c1ccccc1 (stereo not drawn) [Example 264, 1-Phenylpropyl N-{4-[(6,7-dimethoxy-4-quinolyl)oxy]-2,5-dimethylphenyl}carbamate] |  | 42 | 486 | 
3-Morpholinopropyl N-{4-[(6,7-dimethoxy-4-quinolyl)oxy]-2,5-dimethylphenyl}carbamate [Example 423] | < 10 |  |  | IC50 ([2]; 50 ng/ml h-SCF): 102 nM
COc1cc2nccc(Oc3cc(C)c(NC(=O)OCc4ccccc4C)cc3C)c2cc1OC [Example 253, 2-Methylbenzyl N-{4-[(6,7-dimethoxy-4-quinolyl)oxy]-2,5-dimethylphenyl}carbamate] |  | 17 | 514 | 

Compound | IC50 [1] [nM] | IC50 ([1]; Pharmacological Test Example 1) [nM] | IC50 ([2]; h-SCF 50 ng/ml) [nM] | also measured
COc1cc2nccc(Oc3ccc(NC(=O)OCCc4ccccc4)cc3)c2cc1OC [Example 297, Phenethyl N-{4-[(6,7-dimethoxy-4-quinolyl)oxy]phenyl}carbamate] |  | < 10 | 41 | 
COc1cc2nccc(Oc3ccc(NCCCOc4ccccc4)c(C)c3C)c2cc1OC [Example 887, N-{4-[(6,7-Dimethoxy-4-quinolyl)oxy]-2,3-dimethylphenyl}-N-(3-phenoxypropyl)amine] | 50 |  |  | inhibition at 1 µM ([2]; figure in parentheses in −( )): 20%
COc1cc2nccc(Oc3ccc(NC(=S)NC(=O)c4cc(C)ccc4C)cc3)c2cc1OC [Example 1004, N-{4-[(6,7-Dimethoxy-4-quinolyl)oxy]phenyl}-N′-(2,5-dimethylbenzoyl)thiourea] | 10 |  |  | IC50 ([2]; h-SCF stimulation): 877 nM
COc1cccc(C(C)OC(=O)Nc2ccc(Oc3ccnc4cc(OC)c(OC)cc34)c(C)c2C)c1 (stereo not drawn) [Example 53, 1-(3-Methoxyphenyl)ethyl N-{4-[(6,7-dimethoxy-4-quinolyl)oxy]-2,3-dimethylphenyl}carbamate] |  | < 10 | 480 | 
COc1cc2nccc(Oc3cc(C)c(NC(=O)OC4CCCC4)cc3C)c2cc1OC [Example 364, Cyclopentyl N-{4-[(6,7-dimethoxy-4-quinolyl)oxy]-2,5-dimethylphenyl}carbamate] |  | 29 | 98 | 
COc1cc2nccc(Oc3ccc(NC(=O)OC(C)c4cc(F)c(F)cc4F)c(C)c3C)c2cc1OC (stereo not drawn) [Example 93, 1-(2,4,5-Trifluorophenyl)ethyl N-{4-[(6,7-dimethoxy-4-quinolyl)oxy]-2,3-dimethylphenyl}carbamate] |  | 17 | 601 | 
COc1cc2ncnc(Oc3ccc(NC(=O)OCC4CCCCC4)cc3)c2cc1OC [Example 340, Cyclohexylmethyl N-{4-[(6,7-dimethoxy-4-quinazolinyl)oxy]phenyl}carbamate] |  | < 10 | 107 | 
COc1cc2ncnc(Oc3ccc(NC(=O)OCCCOc4ccccc4F)cc3)c2cc1OC [Example 145, 3-(2-Fluorophenoxy) propyl N-{4-[(6,7-dimethoxy-4-quinazolinyl)oxy]phenyl}carbamate] |  | < 10 | < 30 | 
COc1cc2nccc(Oc3ccc(NC(=O)OC(C)c4ccccc4F)c(C)c3C)c2cc1OC (stereo not drawn) [Example 123, 1-(2-Fluorophenyl)ethyl N-{4-[(6,7-dimethoxy-4-quinolyl)oxy]-2,3-dimethylphenyl}carbamate] |  | < 10 | 207 | 
CCCCCCOC(=O)Nc1ccc(Oc2ncnc3cc(OC)c(OC)cc23)cc1[N+](=O)[O-] [Example 509, Hexyl N-{4-[(6,7-dimethoxy-4-quinazolinyl)oxy]-2-nitrophenyl}carbamate] | 26 |  |  | IC50 ([2]; 50 ng/ml h-SCF): 164 nM
COc1cc2nccc(Oc3ccc(NC(=O)OCCCSc4cc(C)ccc4C)cc3)c2cc1OC [Example 169, 3-[(2,5-Dimethylphenyl)sulfanyl)propyl N-{4-[(6,7-dimethoxy-4-quinolyl)oxy]phenyl}carbamate] |  | < 10 | 31 | 
COc1cc(Oc2ncnc3cc(OC)c(OC)cc23)ccc1NC(=O)OCc1ccccc1Cl [Example 499, 2-Chlorobenzyl N-{4-[(6,7-dimethoxy-4-quinazolinyl)oxy]-2-methoxyphenyl}carbamate] | < 10 |  |  | IC50 ([2]; 50 ng/ml h-SCF): 98 nM
COc1cc2nccc(Oc3ccc(NC(=S)NC(=O)C(C)Oc4ccccc4Cl)cc3Cl)c2cc1OC (stereo not drawn) [Example 764, N-{3-Chloro-4-[(6,7-dimethoxy-4-quinolyl)oxy]phenyl}-N′-[2-(2-chlorophenoxy)propanoyl]thiourea] | 14 |  |  | inhibition at 1 µM [2, 3]: 19%
COc1cc2ncnc(Oc3ccc(NC(=O)OCCCOc4ccc(Cl)cc4)c(C)c3C)c2cc1OC [Example 213, 3-(4-Chlorophenoxy)propyl N-{4-[(6,7-dimethoxy-4-quinazolinyl)oxy]-2,3-dimethylphenyl}-carbamate] |  | 21 | 61 | 
CCC(CC)OC(=O)Nc1ccc(Oc2ncnc3cc(OC)c(OC)cc23)cc1 [Example 361, 1-Ethylpropyl N-{4-[(6,7-dimethoxy-4-quinazolinyl)oxy]phenyl}carbamate] |  | < 10 | 278 | 
COc1cc2nccc(Oc3ccc(NC(=O)OC(C)c4cccc(C(F)(F)F)c4)cc3)c2cc1OC (stereo not drawn) [Example 87, 1-[3-(Trifluoromethyl)phenyl]ethyl N-{4-[(6,7-dimethoxy-4-quinolyl)oxy]phenyl}carbamate] |  | < 10 | 607 | 
